Where two headings read alike, the source gives them in different places.
Key:
[1] = tested on: HCV genotype 1b (Con1) replicon in HUH-7 cells; assay: HCV replicon luciferase reporter assay, genotype 1b; format: cell-based; details: Hepatitis C virus, Huh-7, 72 h, HCV genotype 1b replicon luciferase, 3 days incubation, read-out: LE_1b (EC50, range)
Method in brief: (§1)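 Replicon inhibition for both genotypes was measured as Renilla luciferase signal (EnduRen, 7.5 μM final, 2 h) after 3-day, 37° C exposure of replicon-bearing HUH-7 cells in 4% FCS DMEM, 0.5% DMSO. The 1b construct carries S1179I; the 1a H77 construct carries P1496L and S2204I. Twenty-point, 3-fold dilutions were fitted four-parametrically for EC50, and CC50 was taken from multiplexed Cell Titer-Blue.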

[2] = tested on: HCV genotype 1a (H77 strain) replicon in HUH-7 cells; assay: HCV replicon luciferase reporter assay, genotype 1a; format: cell-based; details: Hepatitis C virus, Huh-7, 72 h, HCV genotype 1a replicon luciferase, 3 days incubation, read-out: LE_1a (EC50, range)
Method in brief: as §1

SMILES | EC50 ([1]; GETYPE1B) | EC50 ([2]; GETYPE1A) | EC50 [1] | EC50 [2]
COc1ccc2c(O[C@@H]3C[C@H]4C(=O)N[C@]5(C(=O)NS(=O)(=O)C6(C)CC6)C[C@H]5/C=C\CC[C@@H](C)C[C@@H](C)[C@H](NC(=O)OC(C)(C)C(F)(F)F)C(=O)N4C3)cnnc2c1 [Compound 4322] | 5.01 to 35 nM | 5.01 to 35 nM |  | 
CC[C@@H]1C[C@H](C)CC/C=C\[C@@H]2C[C@@]2(C(=O)NS(=O)(=O)C2(C)CC2)NC(=O)[C@@H]2C[C@@H](Oc3ncc(OC)c4ccc(F)cc34)CN2C(=O)[C@H]1NC(=O)C1(C(F)(F)F)CC1 [Compound 4323, (2R,6S,7R,9R,13aS,14aR,16aS,Z)-7-ethyl-2-((7-fluoro-4-methoxyisoquinolin-1-yl)oxy)-9-methyl-N-((1-methylcyclopropyl)sulfonyl)-5,16-dioxo-6-(1-(trifluoromethyl)cyclopropanecarboxamido)-1,2,3,5,6,7,8,9,10,11,13a,14,14a,15,16,16a-hexadecahydrocyclopropa[e]pyrrolo[1,2-a][1,4]diazacyclopentadecine-14a-carboxamide] |  |  | 0.51 to 1 nM | 1.01 to 5 nM
CC[C@@H]1C[C@H](C)CC/C=C\[C@@H]2C[C@@]2(C(=O)NS(=O)(=O)C2(C)CC2)NC(=O)[C@@H]2C[C@@H](Oc3ncc(OC)c4ccc(F)cc34)CN2C(=O)[C@H]1NC(=O)C(C)(C)C(F)(F)F [Compound 4324, (2R,6S,7R,9R,13aS,14aR,16aS,Z)-7-ethyl-2-((7-fluoro-4-methoxyisoquinolin-1-yl)oxy)-9-methyl-N-((1-methylcyclopropyl)sulfonyl)-5,16-dioxo-6-(3,3,3-trifluoro-2,2-dimethylpropanamido)-1,2,3,5,6,7,8,9,10,11,13a,14,14a,15,16,16a-hexadecahydrocyclopropa[e]pyrrolo[1,2-a][1,4]diazacyclopentadecine-14a-carboxamide] |  |  | 0.51 to 1 nM | 1.01 to 5 nM
CC[C@@H]1C[C@H](C)CC/C=C\[C@@H]2C[C@@]2(C(=O)NS(=O)(=O)C2(CO)CC2)NC(=O)[C@@H]2C[C@@H](Oc3nccc4cc(OC)c(F)cc34)CN2C(=O)[C@H]1NC(=O)OC(C)(C)C(F)(F)F [Compound 4325] | 5.01 to 35 nM | 35 to 620 nM |  | 
CC[C@@H]1C[C@@H](C)CC/C=C\[C@@H]2C[C@@]2(C(=O)NS(=O)(=O)C2(CO)CC2)NC(=O)[C@@H]2C[C@@H](Oc3nccc4cc(OC)c(F)cc34)CN2C(=O)[C@H]1NC(=O)OC(C)(C)C(F)(F)F [Compound 4326] | 35 to 620 nM | 35 to 620 nM |  | 
CC[C@@H]1C[C@H](C)CC/C=C\[C@@H]2C[C@@]2(C(=O)NS(=O)(=O)C2CC2)NC(=O)[C@@H]2C[C@@H](Oc3cnnc4cc(OC)ccc34)CN2C(=O)[C@H]1NC(=O)OC(C)(C)C(F)(F)F [Compound 4327] | 5.01 to 35 nM | 5.01 to 35 nM |  | 
CC[C@@H]1C[C@H](C)CC/C=C\[C@@H]2C[C@@]2(C(=O)NS(=O)(=O)C2(C)CC2)NC(=O)[C@@H]2C[C@@H](Oc3ncc(OC)c4ccc(F)cc34)CN2C(=O)[C@H]1NC(=O)N1CC(C)OC(C)C1 (stereo partly drawn) [Compound 4328, N-((2R,6S,7R,9R,13aS,14aR,16aS,Z)-7-ethyl-2-((7-fluoro-4-methoxyisoquinolin-1-yl)oxy)-9-methyl-14a-(((1-methylcyclopropyl)sulfonyl)carbamoyl)-5,16-dioxo-1,2,3,5,6,7,8,9,10,11,13a,14,14a,15,16,16a-hexadecahydrocyclopropa[e]pyrrolo[1,2-a][1,4]diazacyclopentadecin-6-yl)-2,6-dimethylmorpholine-4-carboxamide] |  |  | 1.01 to 5 nM | 1.01 to 5 nM
CC[C@@H]1C[C@H](C)CC/C=C\[C@@H]2C[C@@]2(C(=O)NS(=O)(=O)C2(C)CC2)NC(=O)[C@@H]2C[C@@H](Oc3nccc4cc(OC)c(F)cc34)CN2C(=O)[C@H]1NC(=O)C1(C(F)(F)F)CC1 [Compound 4331, (2R,6S,7R,9R,13aS,14aR,16aS,Z)-7-ethyl-2-((7-fluoro-6-methoxyisoquinolin-1-yl)oxy)-9-methyl-N-((1-methylcyclopropyl)sulfonyl)-5,16-dioxo-6-(1-(trifluoromethyl)cyclopropanecarboxamido)-1,2,3,5,6,7,8,9,10,11,13a,14,14a,15,16,16a-hexadecahydrocyclopropa[e]pyrrolo[1,2-a][1,4]diazacyclopentadecine-14a-carboxamide] |  |  | 0.51 to 1 nM | 1.01 to 5 nM
CC[C@@H]1C[C@H](C)CC/C=C\[C@@H]2C[C@@]2(C(=O)NS(=O)(=O)C2(C)CC2)NC(=O)[C@@H]2C[C@@H](Oc3nccc4cc(OC)c(F)cc34)CN2C(=O)[C@H]1NC(=O)C(C)(C)C(F)(F)F [Compound 4332, (2R,6S,7R,9R,13aS,14aR,16aS,Z)-7-ethyl-2-((7-fluoro-6-methoxyisoquinolin-1-yl)oxy)-9-methyl-N-((1-methylcyclopropyl)sulfonyl)-5,16-dioxo-6-(3,3,3-trifluoro-2,2-dimethylpropanamido)-1,2,3,5,6,7,8,9,10,11,13a,14,14a,15,16,16a-hexadecahydrocyclopropa[e]pyrrolo[1,2-a][1,4]diazacyclopentadecine-14a-carboxamide] |  |  | 1.01 to 5 nM | 1.01 to 5 nM
CC[C@@H]1C[C@H](C)CC/C=C\[C@@H]2C[C@@]2(C(=O)NS(=O)(=O)C2(C)CC2)NC(=O)[C@@H]2C[C@@H](Oc3nccc4cc(OC)c(F)cc34)CN2C(=O)[C@H]1NC(=O)N1CCOCC1 [Compound 4333, N-((2R,6S,7R,9R,13aS,14aR,16aS,Z)-7-ethyl-2-((7-fluoro-6-methoxyisoquinolin-1-yl)oxy)-9-methyl-14a-(((1-methylcyclopropyl)sulfonyl)carbamoyl)-5,16-dioxo-1,2,3,5,6,7,8,9,10,11,13a,14,14a,15,16,16a-hexadecahydrocyclopropa[e]pyrrolo[1,2-a][1,4]diazacyclopentadecin-6-yl)morpholine-4-carboxamide] |  |  | 5.01 to 35 nM | 5.01 to 35 nM
CC[C@@H]1C[C@H](C)CC/C=C\[C@@H]2C[C@@]2(C(=O)NS(=O)(=O)C2(C)CC2)NC(=O)[C@@H]2C[C@@H](Oc3nccc4cc(OC)c(F)cc34)CN2C(=O)[C@H]1NC(=O)N1CC(C)OC(C)C1 (stereo partly drawn) [Compound 4334, N-((2R,6S,7R,9R,13aS,14aR,16aS,Z)-7-ethyl-2-((7-fluoro-6-methoxyisoquinolin-1-yl)oxy)-9-methyl-14a-(((1-methylcyclopropyl)sulfonyl)carbamoyl)-5,16-dioxo-1,2,3,5,6,7,8,9,10,11,13a,14,14a,15,16,16a-hexadecahydrocyclopropa[e]pyrrolo[1,2-a][1,4]diazacyclopentadecin-6-yl)-2,6-dimethylmorpholine-4-carboxamide] |  |  | 1.01 to 5 nM | 1.01 to 5 nM
CC[C@@H]1C[C@H](C)CC/C=C\[C@@H]2C[C@@]2(C(=O)NS(=O)(=O)C2(C)CC2)NC(=O)[C@@H]2C[C@@H](Oc3nccc4cc(OC)c(F)cc34)CN2C(=O)[C@H]1NC(=O)N1CCN(C)CC1 [Compound 4335, (2R,6S,7R,9R,13aS,14aR,16aS,Z)-7-ethyl-2-((7-fluoro-6-methoxyisoquinolin-1-yl)oxy)-9-methyl-N-((1-methylcyclopropyl)sulfonyl)-6-(4-methylpiperazine-1-carboxamido)-5,16-dioxo-1,2,3,5,6,7,8,9,10,11,13a,14,14a,15,16,16a-hexadecahydrocyclopropa[e]pyrrolo[1,2-a][1,4]diazacyclopentadecine-14a-carboxamide] |  |  | 5.01 to 35 nM | 5.01 to 35 nM
CC(C)Oc1ccc2nc(C(F)(F)F)c(O[C@@H]3C[C@H]4C(=O)N[C@]5(C(=O)NS(=O)(=O)C6(C)CC6)C[C@H]5/C=C\CC[C@@H](C)C[C@@H](C)[C@H](NC(=O)OC(C)(C)C(F)(F)F)C(=O)N4C3)nc2c1 [Compound 4336] | 0.51 to 1 nM | 0.51 to 1 nM |  | 
CC[C@@H]1C[C@H](C)CC/C=C\[C@@H]2C[C@@]2(C(=O)NS(=O)(=O)C2CC2)NC(=O)[C@@H]2C[C@@H](Oc3nc4cc(OC(C)C)ccc4nc3C(F)(F)F)CN2C(=O)[C@H]1NC(=O)OC(C)(C)C [Compound 4337, tert-butyl ((2R,6S,7R,9R,13aS,14aR,16aS,Z)-14a-((cyclopropylsulfonyl)carbamoyl)-7-ethyl-2-((7-isopropoxy-3-(trifluoromethyl)quinoxalin-2-yl)oxy)-9-methyl-5,16-dioxo-1,2,3,5,6,7,8,9,10,11,13a,14,14a,15,16,16a-hexadecahydrocyclopropa[e]pyrrolo[1,2-a][1,4]diazacyclopentadecin-6-yl)carbamate] |  |  | 0.51 to 1 nM | 0.51 to 1 nM
CC[C@@H]1C[C@H](C)CC/C=C\[C@@H]2C[C@@]2(C(=O)NS(=O)(=O)C2CC2)NC(=O)[C@@H]2C[C@@H](Oc3nc4cc(OC(C)C)ccc4nc3C(F)(F)F)CN2C(=O)[C@H]1NC(=O)OC(C)(C)C(F)(F)F [Compound 4338] | 1.01 to 5 nM | 1.01 to 5 nM |  | 
COc1cnc2ccc(O[C@@H]3C[C@H]4C(=O)N[C@]5(C(=O)NS(=O)(=O)C6(C)CC6)C[C@H]5/C=C\CC[C@@H](C)C[C@@H](C)[C@H](NC(=O)OC(C)(C)C(F)(F)F)C(=O)N4C3)cc2n1 [Compound 4339] | 0.1 to 0.5 nM | 0.1 to 0.5 nM |  | 
CC[C@@H]1C[C@H](C)CC/C=C\[C@@H]2C[C@@]2(C(=O)NS(=O)(=O)C2CC2)NC(=O)[C@@H]2C[C@@H](Oc3cnnc4cc(OC)ccc34)CN2C(=O)[C@H]1NC(=O)OC(C)(C)C [Compound 4340, tert-butyl ((2R,6S,7R,9R,13aS,14aR,16aS,Z)-14a-((cyclopropylsulfonyl)carbamoyl)-7-ethyl-2-((7-methoxycinnolin-4-yl)oxy)-9-methyl-5,16-dioxo-1,2,3,5,6,7,8,9,10,11,13a,14,14a,15,16,16a-hexadecahydrocyclopropa[e]pyrrolo[1,2-a][1,4]diazacyclopentadecin-6-yl)carbamate] |  |  | 5.01 to 35 nM | 5.01 to 35 nM
